Assay results taken from patent publication US12281122B1, “PI3K inhibitors” (Cogent Biosciences, Inc., priority 2023, dated 2025).

Tests used:
[1] = system: T47D (PI3Kα-H1047R) cell line; assay: HTRF phospho-AKT(S473) cell assay in T47D cells; type: cell-based, human
Outline: (§1)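 T47D: RPMI + 10% FBS + 0.2 units/mL insulin, top 5 μM. SKBR3: McCoy's 5A + 10% FBS, top 10 μM, 70 ng/ml PDGF-BB last 15 min. Both: 12-pt 1:3, 2 h, 37° C, max 0.5% DMSO; HTRF pAKT(S473); IC50.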

[2] = system: SKBR3 (PI3Kα-Wild Type) cell line; assay: HTRF phospho-AKT(S473) cell assay in SKBR3 cells; type: cell-based, human
Outline: as §1

[3] = Homo sapiens; HTRF phospho-AKT(S473), T47D (PI3Kα-H1047R) cells, 2 hours compound incubation
[4] = Homo sapiens, SK-BR-3; HTRF phospho-AKT(S473), SKBR3 (PI3Kα-Wild Type) cells, 2 hours compound incubation, PDGF-BB stimulated
[5] = Homo sapiens; T47D (PI3Kα-H1047R) cells, HTRF phospho-AKT(S473), 2 hours compound incubation
[6] = Homo sapiens, SK-BR-3; SKBR3 (PI3Kα-Wild Type) cells, HTRF phospho-AKT(S473), 2 hours compound incubation, PDGF-BB stimulated

| SMILES | IC50 [1, 3] [µM] | IC50 [2, 4] [µM] | IC50 [1, 5] [µM] | IC50 [2, 6] [µM] |
| --- | --- | --- | --- | --- |
| Cc1ccc(N2C[C@@H]3C[C@H]2CN3c2nc3c([C@@H](C)Nc4ccc(Cl)nc4C(=O)NS(C)(=O)=O)cc(C)cc3c(=O)n2C)nc1 [Compound 663, 6-chloro-3-(((R)-1-(3,6-dimethyl-2-((1S,4S)-5-(5-methylpyridin-2-yl)-2,5-diazabicyclo [2.2.1]heptan-2-yl)-4-oxo-3,4-dihydroquinazolin-8-yl)ethyl)amino)-N-(methylsulfonyl) picolinamide] | 0.5 to 1 | > 5 |  |  |
| Cc1cc([C@@H](C)Nc2ccc(Cl)nc2C(=O)NS(C)(=O)=O)c2nc(N3Cc4cn(-c5ccncc5)nc4C3)n(C)c(=O)c2c1 [Compound 192, (R)-6-chloro-3-((1-(3,6-dimethyl-4-oxo-2-(2-(pyridin-4-yl)-2,6-dihydropyrrolo[3,4-c]pyrazol-5(4H)-yl)-3,4-dihydroquinazolin-8-yl)ethyl)amino)-N-(methylsulfonyl) picolinamide] |  |  | < 0.25 | 1 to 5 |
| Cc1cc([C@@H](C)Nc2ccc(Cl)nc2C(=O)NS(C)(=O)=O)c2nc(N(C)CC3(C(F)(F)F)CC3)n(C)c(=O)c2c1 [Compound 163, (R)-6-chloro-3-((1-(3,6-dimethyl-2-(methyl((1-(trifluoromethyl)cyclopropyl)methyl)amino)-4-oxo-3,4-dihydroquinazolin-8-yl)ethyl)amino)-N-(methylsulfonyl) picolinamide] |  |  | 0.25 to 0.5 | 1 to 5 |
| COc1cc([C@H]2[C@@H]3CN(c4nc5c([C@@H](C)Nc6ccc(Cl)nc6C(=O)NS(C)(=O)=O)cc(C)cc5c(=O)n4C)C[C@@H]32)n[nH]1 [Compound 722, 6-chloro-3-(((R)-1-(2-((1R,5S,6R)-6-(5-methoxy-1H-pyrazol-3-yl)-3-azabicyclo[3.1.0]hexan-3-yl)-3,6-dimethyl-4-oxo-3,4-dihydroquinazolin-8-yl)ethyl)amino)-N-(methylsulfonyl) picolinamide] | 0.25 to 0.5 | 1 to 5 |  |  |
| Cc1cc([C@@H](C)Nc2ccc(Cl)nc2C(=O)NS(C)(=O)=O)c2nc(N3CC[C@@H](Oc4ncc(F)cn4)C3)n(C)c(=O)c2c1 [Compound 538, 6-chloro-3-(((R)-1-(2-((R)-3-((5-fluoropyrimidin-2-yl)oxy)pyrrolidin-1-yl)-3,6-dimethyl-4-oxo-3,4-dihydroquinazolin-8-yl)ethyl)amino)-N-(methylsulfonyl) picolinamide] | < 0.25 | 1 to 5 |  |  |
| Cc1cc([C@@H](C)Nc2ccc(Cl)nc2C(=O)NS(C)(=O)=O)c2nc(N3C[C@@H]4[C@H](C3)[C@H]4c3nnn(C)c3C)n(C)c(=O)c2c1 [Compound 498, 6-chloro-3-(((R)-1-(2-((1R,5S,6R)-6-(1,5-dimethyl-1H-1,2,3-triazol-4-yl)-3-azabicyclo[3.1.0]hexan-3-yl)-3,6-dimethyl-4-oxo-3,4-dihydroquinazolin-8-yl)ethyl)amino)-N-(methylsulfonyl) picolinamide] | < 0.25 | 1 to 5 |  |  |
| Cc1cc([C@@H](C)Nc2ccc(Cl)nc2C(=O)NS(C)(=O)=O)c2nc(N3CCc4nocc4C3)n(C)c(=O)c2c1 [Compound 332, (R)-6-chloro-3-((1-(2-(6,7-dihydroisoxazolo[4,3-c]pyridin-5(4H)-yl)-3,6-dimethyl-4-oxo-3,4-dihydroquinazolin-8-yl)ethyl)amino)-N-(methylsulfonyl) picolinamide] |  |  | < 0.25 | 1 to 5 |
| Cc1cc([C@@H](C)Nc2ccc(Cl)nc2C(=O)NS(C)(=O)=O)c2nc(N3CCN(c4ncccc4F)CC3)n(C)c(=O)c2c1 [Compound 662, (R)-6-chloro-3-((1-(2-(4-(3-fluoropyridin-2-yl)piperazin-1-yl)-3,6-dimethyl-4-oxo-3,4-dihydroquinazolin-8-yl)ethyl)amino)-N-(methylsulfonyl) picolinamide] | 0.25 to 0.5 | ≥ 5 |  |  |
| Cc1cc([C@@H](C)Nc2ccc(Cl)nc2C(=O)NS(C)(=O)=O)c2nc(N3CC[C@@H](Oc4cnc(C)cn4)C3)n(C)c(=O)c2c1 [Compound 672, 6-chloro-3-(((R)-1-(3,6-dimethyl-2-((R)-3-((5-methylpyrazin-2-yl)oxy)pyrrolidin-1-yl)-4-oxo-3,4-dihydroquinazolin-8-yl)ethyl)amino)-N-(methylsulfonyl) picolinamide] | < 0.25 | 1 to 5 |  |  |
| Cc1cc([C@@H](C)Nc2ccc(Cl)nc2C(=O)NS(C)(=O)=O)c2nc(N3CCC(c4ncc(C)c(C)n4)CC3)n(C)c(=O)c2c1 [Compound 544, (R)-6-chloro-3-((1-(2-(4-(4,5-dimethylpyrimidin-2-yl)piperidin-1-yl)-3,6-dimethyl-4-oxo-3,4-dihydroquinazolin-8-yl)ethyl)amino)-N-(methylsulfonyl) picolinamide] | < 0.25 | 1 to 5 |  |  |
| CC(=O)N1CCC(c2ccc(-c3nc4c([C@@H](C)Nc5ccc(Cl)nc5C(=O)NS(C)(=O)=O)cc(C)cc4c(=O)n3C)cc2F)CC1 [Compound 786, (R)-3-((1-(2-(4-(1-acetylpiperidin-4-yl)-3-fluorophenyl)-3,6-dimethyl-4-oxo-3,4-dihydroquinazolin-8-yl)ethyl)amino)-6-chloro-N-(methylsulfonyl) picolinamide] | < 0.25 | 1 to 5 |  |  |
| Cc1cc([C@@H](C)Nc2ccc(Cl)nc2C(=O)NS(C)(=O)=O)c2nc(N3CCC(c4cccn(C)c4=O)CC3)n(C)c(=O)c2c1 [Compound 348, (R)-6-chloro-3-((1-(3,6-dimethyl-2-(4-(1-methyl-2-oxo-1,2-dihydropyridin-3-yl)piperidin-1-yl)-4-oxo-3,4-dihydroquinazolin-8-yl)ethyl)amino)-N-(methylsulfonyl) picolinamide] |  |  | < 0.25 | ≥ 5 |
| Cc1cc([C@@H](C)Nc2ccc(Cl)nc2C(=O)NS(C)(=O)=O)c2nc(N3CCN(c4cncc(C)n4)CC3)n(C)c(=O)c2c1 [Compound 529, (R)-6-chloro-3-((1-(3,6-dimethyl-2-(4-(6-methylpyrazin-2-yl)piperazin-1-yl)-4-oxo-3,4-dihydroquinazolin-8-yl)ethyl)amino)-N-(methylsulfonyl) picolinamide] | < 0.25 | 1 to 5 |  |  |
| COc1ccccc1-n1ncc2c1CN(c1nc3c([C@@H](C)Nc4ccc(Cl)nc4C(=O)NS(C)(=O)=O)cc(C)cc3c(=O)n1C)C2 [Compound 326, (R)-6-chloro-3-((1-(2-(1-(2-methoxyphenyl)-4,6-dihydropyrrolo[3,4-c]pyrazol-5(1H)-yl)-3,6-dimethyl-4-oxo-3,4-dihydroquinazolin-8-yl)ethyl)amino)-N-(methylsulfonyl) picolinamide] |  |  | < 0.25 | 1 to 5 |
| Cc1cc([C@@H](C)Nc2ccc(Cl)nc2C(=O)NS(C)(=O)=O)c2nc([C@@H]3CCCN(c4cccnc4)C3)n(C)c(=O)c2c1 (relative stereo) [Compound 211, 6-chloro-3-(((R)-1-(3,6-dimethyl-4-oxo-2-((R*)-1-(pyridin-3-yl)piperidin-3-yl)-3,4-dihydroquinazolin-8-yl)ethyl)amino)-N-(methylsulfonyl) picolinamide] |  |  | < 0.25 | 1 to 5 |
| Cc1cc([C@@H](C)Nc2ccc(Cl)nc2C(=O)NS(C)(=O)=O)c2nc(-c3cnc(N4CCOCC4)nc3)n(C)c(=O)c2c1 [Compound 814, (R)-6-chloro-3-((1-(3,6-dimethyl-2-(2-morpholinopyrimidin-5-yl)-4-oxo-3,4-dihydroquinazolin-8-yl)ethyl)amino)-N-(methylsulfonyl) picolinamide] | < 0.25 | 1 to 5 |  |  |
| Cc1cc([C@@H](C)Nc2ccc(Cl)nc2C(=O)NS(C)(=O)=O)c2nc(N3C[C@@H]4[C@H](C3)[C@H]4c3cc(C)[nH]n3)n(C)c(=O)c2c1 [Compound 510, 6-chloro-3-(((R)-1-(3,6-dimethyl-2-((1R,5S,6R)-6-(5-methyl-1H-pyrazol-3-yl)-3-azabicyclo[3.1.0]hexan-3-yl)-4-oxo-3,4-dihydroquinazolin-8-yl)ethyl)amino)-N-(methylsulfonyl) picolinamide] | 0.25 to 0.5 | 1 to 5 |  |  |
| Cc1cc([C@@H](C)Nc2ccc(Cl)nc2C(=O)NS(C)(=O)=O)c2nc(N3CCC(c4ccnc(C)n4)CC3)n(C)c(=O)c2c1 [Compound 260, (R)-6-chloro-3-((1-(3,6-dimethyl-2-(4-(2-methylpyrimidin-4-yl)piperidin-1-yl)-4-oxo-3,4-dihydroquinazolin-8-yl)ethyl)amino)-N-(methylsulfonyl) picolinamide] |  |  | < 0.25 | 1 to 5 |
| Cc1cc([C@@H](C)Nc2ccc(Cl)nc2C(=O)NS(C)(=O)=O)c2nc(N3C[C@@H]4[C@H](C3)[C@H]4c3cnc(C)cn3)n(C)c(=O)c2c1 [Compound 394, 6-chloro-3-(((R)-1-(3,6-dimethyl-2-((1R,5S,6R)-6-(5-methylpyrazin-2-yl)-3-azabicyclo[3.1.0]hexan-3-yl)-4-oxo-3,4-dihydroquinazolin-8-yl)ethyl)amino)-N-(methylsulfonyl) picolinamide] |  |  | < 0.25 | 1 to 5 |
| Cc1cc([C@@H](C)Nc2ccc(Cl)nc2C(=O)NS(C)(=O)=O)c2nc(-c3ccc(OCCN4CCOCC4)cc3)n(C)c(=O)c2c1 [Compound 793, (R)-6-chloro-3-((1-(3,6-dimethyl-2-(4-(2-morpholinoethoxy)phenyl)-4-oxo-3,4-dihydroquinazolin-8-yl)ethyl)amino)-N-(methylsulfonyl) picolinamide] | < 0.25 | ≥ 5 |  |  |
